Data set [1] concerns the target T1, recombinant human CYP enzymes (CYP1A2, CYP2B6, CYP2C9, CYP2C19, CYP2D6, CYP3A4, CYP4A11 and CYP4F2) (Homo sapiens, UniProt P05177).
T1 construct: purchased Cypex (Scotland, UK)
The data set is described as follows: Incubation with 8 recombinant human CYP enzymes. The class given is in vitro ADME. The following applies: Table 4 experimental column. As for the experimental part:
(§1) Incubation of N-hydap (2.5 μM) with eight recombinant human CYP enzymes (CYP1A2, CYP2B6, CYP2C9, CYP2C19, CYP2D6, CYP3A4, CYP4A11 and CYP4F2) at three enzyme concentrations (2, 4, and 20 μg/mL) was conducted following the same procedure as described above for microsomes. Subsequently, incubation with N-hydap (1, 2.5, and 6 μM) and twelve recombinant human UGT isoforms (UGT1A1, UGT1A3, UGT1A4, UGT1A6, UGT1A7, UGT1A8, UGT1A9, UGT1A10, UGT2B4, UGT2B7, UGT2B15 and UGT2B17) was performed, with the enzyme concentration used at 2 μg/mL. All reactions were carried out in triplicate.

Data set [2] addresses T2, recombinant human CYP enzymes (CYP1A2, CYP2B6, CYP2C9, CYP2C19, CYP2D6, CYP3A4, CYP4A11 and CYP4F2) (Homo sapiens, UniProt P08684).
T2 construct: purchased Cypex (Scotland, UK)
The data set is described as follows: Incubation with 8 recombinant human CYP enzymes. The data set is classed as in vitro ADME. As to conditions: Table 4 experimental column. As for the experimental part: as §1

In data set [3] the target is T3, recombinant human CYP enzymes (CYP1A2, CYP2B6, CYP2C9, CYP2C19, CYP2D6, CYP3A4, CYP4A11 and CYP4F2) (Homo sapiens, UniProt P11712).
T3 construct: purchased Cypex (Scotland, UK)
T3 sequence (P11712 whole entry): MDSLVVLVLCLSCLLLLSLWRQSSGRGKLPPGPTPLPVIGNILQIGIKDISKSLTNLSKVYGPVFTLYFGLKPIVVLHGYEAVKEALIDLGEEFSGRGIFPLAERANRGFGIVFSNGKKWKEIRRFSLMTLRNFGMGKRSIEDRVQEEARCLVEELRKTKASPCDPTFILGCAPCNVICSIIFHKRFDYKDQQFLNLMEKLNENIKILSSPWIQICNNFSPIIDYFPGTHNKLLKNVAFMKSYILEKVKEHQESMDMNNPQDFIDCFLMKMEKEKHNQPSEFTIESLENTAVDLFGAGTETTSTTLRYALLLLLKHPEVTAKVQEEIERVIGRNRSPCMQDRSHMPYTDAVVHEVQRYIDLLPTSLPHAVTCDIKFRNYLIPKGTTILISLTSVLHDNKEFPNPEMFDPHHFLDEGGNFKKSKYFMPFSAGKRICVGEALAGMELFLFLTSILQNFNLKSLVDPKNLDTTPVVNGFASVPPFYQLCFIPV
The data set is described as follows: Incubation with 8 recombinant human CYP enzymes. The data set is classed as in vitro ADME. As to conditions: Table 4 experimental column. As for the experimental part: as §1

Data set [4] relates to recombinant human CYP enzymes (CYP1A2, CYP2B6, CYP2C9, CYP2C19, CYP2D6, CYP3A4, CYP4A11 and CYP4F2). As to the kind of experiment: Incubation with 8 recombinant human CYP enzymes. The class given is in vitro ADME. As to conditions: N-hydap 2.5 μM; enzyme concentrations of 2 and 4 μg/mL; all recombinant CYPs. As for the experimental part: as §1
The next data set concerns UGT1A3. As to the kind of experiment: DME activity ex vivo in MLMs and MKMs: UGT1A3 (CDCA-G). Set-up: species or system mice. The procedure: Mice were randomly divided into four groups, with eight animals in each group. The mice received oral pretreatment with N-hydap for 7 days at doses of 2, 5, and 10 mg/kg/day, which were considered as the low dose, medium dose, and high dose, respectively. Correspondingly, the control group received PBS. On the 8th day, the liver and kidneys were removed, and organs from eight mice per group were combined to prepare MLMs and MKMs using the detailed procedures above. Subsequently, we determined the activity of CYP and UGT enzymes by specific substrate metabolized with MLMs (0.5 mg/mL) and MKMs (0.2 mg/mL) in vitro. Specifically, the following selective substrates were used for the respective enzymes: PH (1 μM) for CYP1A2, DIC (1 μM) for CYP2C9, MP (90 μM) for CYP2C19, DM (1 μM) for CYP2D6, CZX (10 μM) for CYP2E1, Tes (1 μM) for CYP3A4, SN38 (1 μM) for UGT1A1, CACD (100 μM) for UGT1A3, Sero (20 μM) for UGT1A6, and Prop (1 μM) for UGT1A9. All substrates were dissolved in methanol or DMSO. […] In the ex vivo experiments, the activity of enzymes was measured by quantifying the production of various metabolites (nM/mg protein/min). […] The measurements were performed using multiple reaction monitoring (MRM) transitions, which are specific mass spectrometry transitions used for quantification. […]

The subject of another data set is Ugt1a9. The data set is described as follows: DME activity ex vivo in MLMs and MKMs: UGT1A9 (Prop-G from Prop). More on the design: species or system mice; key to UGT1A9 Enzymatic activity: ↑: up-regulation; ↓: down-regulation; –: no change. As for the experimental part: Mice were randomly divided into four groups, with eight animals in each group. The mice received oral pretreatment with N-hydap for 7 days at doses of 2, 5, and 10 mg/kg/day, which were considered as the low dose, medium dose, and high dose, respectively. Correspondingly, the control group received PBS. On the 8th day, the liver and kidneys were removed, and organs from eight mice per group were combined to prepare MLMs and MKMs using the detailed procedures above. Subsequently, we determined the activity of CYP and UGT enzymes by specific substrate metabolized with MLMs (0.5 mg/mL) and MKMs (0.2 mg/mL) in vitro. Specifically, the following selective substrates were used for the respective enzymes: PH (1 μM) for CYP1A2, DIC (1 μM) for CYP2C9, MP (90 μM) for CYP2C19, DM (1 μM) for CYP2D6, CZX (10 μM) for CYP2E1, Tes (1 μM) for CYP3A4, SN38 (1 μM) for UGT1A1, CACD (100 μM) for UGT1A3, Sero (20 μM) for UGT1A6, and Prop (1 μM) for UGT1A9. All substrates were dissolved in methanol or DMSO. The incubation procedure was carried out as mentioned above, and the reaction was terminated with VER (20 ng/mL) in ESI+ mode and CLP (200 ng/mL) in ESI− mode. In the ex vivo experiments, the activity of enzymes was measured by quantifying the production of various metabolites (nM/mg protein/min). The metabolites and their corresponding enzymes are as follows: APAP from PH, 4-OH-DIC from DIC, 4-OH-MP from MP, DXO from DM, 6-OH-CZX from CZX, 6-OH-Tes from Tes, SN38-G from SN38, CACD-G from CACD, Sero-G from Sero, Prop-G from Prop. The measurements were performed using multiple reaction monitoring (MRM) transitions, which are specific mass spectrometry transitions used for quantification. The optimized parameters for each metabolite, such as declustering potential and collision energy, were described in Supplementary Table 1. All experiments were conducted in triplicate, to ensure accuracy and reproducibility.

Data set [5] in a line: Stability in KPI solution (pH 7.4). The class given is physicochemical. As to conditions: for stability, Accuracy (Bias, %): KPI. As for the experimental part:
To verify the feasibility and reliability of the established method, studies on the linearity, accuracy, precision, and stability of N-hydap in potassium phosphate buffer (KPI, pH 7.4, were prepared by mixing KH2PO4 and K2HPO4 in corresponding proportions, and then adding NaOH and H3PO4 to pH 7.4), plasma, and tissue homogenate were carried out. The peak area ratios (analyte/IS) were plotted against the concentrations of the analytes prepared to obtain the calibration curves. Least squares linear regression analysis was used to determine the slopes, intercepts, and determination coefficients (R^2) which should be 0.99 or above of calibration curves. The standard curve equations were determined as y = 0.0001512x + 0.04394 (R^2 = 0.9980) for KPI, y = 0.001579x − 0.09233 (R^2 = 0.9923) for plasma, and y = 0.002271x + 0.03542 (R^2 = 0.9978) for tissue homogenate (Supplementary Fig. 1A–C).
The stability of the KPI solution was examined after storage at 4 °C for 24 h and incubation at 37 °C for 4 h, which was conducted using the QC samples at three concentrations (five samples for each concentration). Stability in plasma and tissue homogenate was assessed by testing samples stored at both 4 °C and room temperature for 24 h.

A further data set concerns RoRγ. More on the design: method as in PMID 35259480. As to conditions: cited from earlier work.

T2 sequence (P08684 whole entry): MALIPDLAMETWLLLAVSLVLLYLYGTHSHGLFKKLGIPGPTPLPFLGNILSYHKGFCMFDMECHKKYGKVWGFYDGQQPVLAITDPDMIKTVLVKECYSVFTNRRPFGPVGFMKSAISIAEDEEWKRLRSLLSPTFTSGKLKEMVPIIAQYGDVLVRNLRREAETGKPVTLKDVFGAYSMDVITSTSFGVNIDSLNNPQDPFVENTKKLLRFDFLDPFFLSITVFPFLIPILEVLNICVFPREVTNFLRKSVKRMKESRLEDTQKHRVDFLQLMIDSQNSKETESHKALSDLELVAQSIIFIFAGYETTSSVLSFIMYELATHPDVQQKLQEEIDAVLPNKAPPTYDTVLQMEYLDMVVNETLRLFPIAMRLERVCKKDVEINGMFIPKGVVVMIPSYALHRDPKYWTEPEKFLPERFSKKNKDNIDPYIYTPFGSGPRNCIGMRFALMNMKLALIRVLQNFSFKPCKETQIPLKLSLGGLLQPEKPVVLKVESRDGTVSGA
T1 sequence (P05177 whole entry): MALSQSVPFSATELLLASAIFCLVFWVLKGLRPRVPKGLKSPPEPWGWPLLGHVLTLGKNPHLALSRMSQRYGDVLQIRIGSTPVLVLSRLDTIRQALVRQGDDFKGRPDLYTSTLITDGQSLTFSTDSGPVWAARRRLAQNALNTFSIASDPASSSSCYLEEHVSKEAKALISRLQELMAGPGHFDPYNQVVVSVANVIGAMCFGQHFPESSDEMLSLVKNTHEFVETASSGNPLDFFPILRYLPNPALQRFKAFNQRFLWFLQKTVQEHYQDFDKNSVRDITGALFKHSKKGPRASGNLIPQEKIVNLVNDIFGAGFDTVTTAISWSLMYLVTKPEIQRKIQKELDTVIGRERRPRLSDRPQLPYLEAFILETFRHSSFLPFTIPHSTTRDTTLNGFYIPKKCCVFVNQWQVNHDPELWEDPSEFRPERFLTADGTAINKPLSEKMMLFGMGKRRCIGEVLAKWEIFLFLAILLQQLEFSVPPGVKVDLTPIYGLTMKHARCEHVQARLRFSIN

Consider `CC1CCC2C(C=CC(C)C2C(=O)c2c(O)c(C3(O)CCC(O)C4OC43)cn(O)c2=O)C1` (centres unmarked) [N-hydap, N-Hydroxyapiosporamide], for which, in data set [1], the “CYP1A2 substrate, experimental results” value is “Yes”. Moreover, the “CYP3A4 substrate, experimental results” value in data set [2] is “Yes”. Moreover, the “CYP2C9 substrate, experimental results” value in data set [3] is recorded as “Yes”. Further, the prototype elimination rate entry in data set [4] was “less than 25%”. For the same compound, the “elevation of formation rate of CDCA-G” value in the data set with UGT1A3 (MLMs and MKMs, range stated jointly for APAP, SN38-G, 6-OH-Tes and CDCA-G) is recorded as 12%-331%. Moreover, the “catalytic activity of UGT1A3” value in the data set on UGT1A3 (after 7 days of oral administration) is listed as “significantly increased”. In addition, the “UGT1A9 Enzymatic activity” value is given as “↑” in the data set on Ugt1a9 (Kidney) and “↓” in the data set on Ugt1a9 (Liver). Also, the “reduction of formation rate of Prop-G vs control” value in the data set on Ugt1a9 (liver microsomes of mice pretreated 7 days p.o.) was found to be 47%. For the same compound, the “results of the stability experiments” value in data set [5] (KPI solution, plasma and tissue homogenate, all storage conditions) was “no significant degradation”. Moreover, the “stability, Accuracy (Bias, %)” value in data set [5] (200 nM, 4℃ for 24h) is reported as 113.85%; in data set [5] (200 nM, 37℃ for 4h), 87.75%; in data set [5] (600 nM, 4℃ for 24h), 105.48%; in data set [5] (600 nM, 37℃ for 4h) it was 85.75%; in data set [5] (2500 nM, 4℃ for 24h), 104.40%; in data set [5] (2500 nM, 37℃ for 4h) it was 97.32%. For the same compound, in the data set on RoRγ, the “action on RoRγ” value is recorded as “RoRγ antagonist”.
